In test [1] the target is T1, androgen receptor (AR) splicing variant AR-v7 (Homo sapiens, UniProt P10275).
T1 construct: The degradation activity of compounds on AR-v7 in 22RV1 cells; host or cells: 22RV1 cells
T1 sequence (P10275 1-644 isoform P10275-3): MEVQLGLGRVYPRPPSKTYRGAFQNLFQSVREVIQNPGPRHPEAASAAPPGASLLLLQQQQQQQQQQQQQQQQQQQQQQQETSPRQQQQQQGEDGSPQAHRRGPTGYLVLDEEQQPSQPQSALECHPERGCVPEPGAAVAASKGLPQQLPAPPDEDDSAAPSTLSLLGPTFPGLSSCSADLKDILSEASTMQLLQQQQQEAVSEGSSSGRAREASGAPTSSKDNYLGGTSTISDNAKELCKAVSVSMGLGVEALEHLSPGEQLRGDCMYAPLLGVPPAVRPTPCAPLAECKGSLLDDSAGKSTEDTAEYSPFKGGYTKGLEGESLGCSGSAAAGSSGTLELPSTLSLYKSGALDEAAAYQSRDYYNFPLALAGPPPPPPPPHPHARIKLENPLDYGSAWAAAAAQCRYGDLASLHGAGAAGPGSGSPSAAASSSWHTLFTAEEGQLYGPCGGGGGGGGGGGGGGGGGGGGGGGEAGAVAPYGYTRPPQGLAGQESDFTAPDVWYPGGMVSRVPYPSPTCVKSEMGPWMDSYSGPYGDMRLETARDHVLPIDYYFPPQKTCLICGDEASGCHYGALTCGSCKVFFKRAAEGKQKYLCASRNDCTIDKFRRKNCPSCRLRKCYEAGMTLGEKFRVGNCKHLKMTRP
The test can be described thus: Degradation activity on androgen receptor splicing variant AR-v7 in 22RV1 cells (ELISA). It counts as cell-based. The note with it: AR-v7 degradation in 22RV1 cells, 48 h, class symbols.

Setting [2] is: Homo sapiens, 22Rv1, 144 h, read-out: 22RV1 IC50 (nM), 22RV1 cells, 6 days culture, CCK-8, OD 450 nm.
Setting [3] is: read-out: 22RV1 IC50, 22RV1 cells, 6 days culture, CCK-8, OD 450 nm.

Read-outs that look alike come from different tables or passages of the source.

In the case of `CN(C)C(=O)c1noc(COc2ccc(C(C)(C)c3ccc(OCCCNc4cccc5c4C(=O)N(C4CCC(=O)NC4=O)C5=O)cc3)cc2)n1` (stereo not drawn) [Example 181, 5-((4-(2-(4-(3-((2-(2,6-dioxopiperidin-3-yl)-1,3-dioxoisoindolin-4-yl)amino)propoxy)phenyl)propan-2-yl)phenoxy)methyl)-N,N-dimethyl-1,2,4-oxadiazol-3-carbonylamine], the IC50 in the test on 22RV1 cells (setting [2]) stood at 140 nM. The molecule also had a DC50 in test [1] of 1000 to 5000 nM.
With `CC(C)(c1ccc(OCCCNc2ccc3c(c2)C(=O)N(C2CCC(=O)NC2=O)C3=O)cc1)c1ccc(OCc2ccnc(C(N)=O)n2)cc1` (stereo not drawn) [Example 182, 4-((4-(2-(4-(3-((2-(2,6-dioxopiperidin-3-yl)-1,3-dioxoisoindolin-5-yl)amino)propoxy)phenyl)propan-2-yl)phenoxy)methyl)pyrimidin-2-carbonylamine], the IC50 with 22RV1 cells (setting [2]) was 50 nM. In test [1], this molecule displayed a DC50 of 11 to 100 nM.
In the case of `CC(C)(c1ccc(OCCCNc2ccc3c(c2)C(=O)N(C2CCC(=O)NC2=O)C3=O)cc1)c1ccc(OCc2nc(CO)co2)cc1` (stereo not drawn) [Example 185, 2-(2,6-dioxopiperidin-3-yl)-5-((3-(4-(2-(4-((4-(hydroxylmethyl)oxazol-2-yl)methoxy)phenyl)propan-2-yl)phenoxy)propyl)amino)isoindolin-1,3-dione], in the test on 22RV1 cells (setting [2]), the IC50 stood at 56 nM. In addition, the DC50 in test [1] lay in the range of 11 to 100 nM.
In the case of `CNC(=O)c1nccc(COc2ccc(C(C)(C)c3ccc(O[C@H]4C[C@H](Nc5ccc6c(c5)C(=O)N(C5CCC(=O)NC5=O)C6=O)C4)cc3)cc2)n1` (stereo partly drawn) [Example 186, 4-((4-(2-(4-((1r,3r)-3-((2-(2,6-dioxopiperidin-3-yl)-1,3-dioxoisoindolin-5-yl)amino)cyclobutyloxy)phenyl)propan-2-yl)phenoxy)methyl)-N-methylpyrimidin-2-carbonylamine], in the test on 22RV1 cells (setting [2]), the IC50 turned out to be 32 nM. The molecule also displayed a DC50 in test [1] of 11 to 100 nM.
For the molecule `CC(C)(c1ccc(O[C@H]2C[C@@H](Nc3ccc4c(c3)C(=O)N(C3CCC(=O)NC3=O)C4=O)C2)cc1)c1ccc(N2CCc3ncnc(N4CC5(COC5)C4)c3C2)cc1` (stereo partly drawn) [Example 194], in the test with 22RV1 cells (setting [2]), the IC50 stood at 33 nM. The same molecule displayed a 50% degradation concentration (DC50) in test [1] of 11 to 100 nM.
Consider `Cc1nccc(Oc2ccc(C(C)(C)c3ccc(O[C@H]4C[C@H](Nc5ccc6c(c5)C(=O)N(C5CCC(=O)NC5=O)C6=O)C4)cc3)cc2)n1` (stereo partly drawn) [Example 197], for which, in the test with 22RV1 cells (setting [2]), the IC50 worked out at 5 nM. The molecule further showed a DC50 in test [1] of less than 10 nM.
`CC(C)(c1ccc(OCc2nc(N3CC4(COC4)C3)ncc2F)cc1)c1ccc(O[C@H]2C[C@H](Nc3ccc4c(c3)C(=O)N(C3CCC(=O)NC3=O)C4=O)C2)cc1` (stereo partly drawn) [Example 200]: in the test with 22RV1 cells (setting [2]), the IC50 was determined as 12 nM. The DC50 in test [1] was less than 10 nM.
For `Cc1cnc(N2CC3(COC3)C2)nc1COc1ccc(C(C)(C)c2ccc(O[C@H]3C[C@H](Nc4ccc5c(c4)C(=O)N(C4CCC(=O)NC4=O)C5=O)C3)cc2)cc1` (stereo partly drawn) [Example 204], in that order: 6 nM and less than 10 nM.
As to `CC(C)(c1ccc(Oc2ccc(-n3ccnn3)nc2)cc1)c1ccc(O[C@H]2C[C@H](Nc3ccc4c(c3)C(=O)N(C3CCC(=O)NC3=O)C4=O)C2)cc1` (stereo partly drawn) [Example 207, 5-((1r,3r)-3-(4-(2-(4-((6-(1H-1,2,3-triazol-1-yl)pyridin-3-yl)oxy)phenyl)propan-2-ylphenoxy)cyclobutyl)amino)-2-(2,6-dioxopiperidin-3-yl) isoindolin-1,3-dione], the IC50 in the test with 22RV1 cells (setting [2]) stood at 16 nM. In test [1], the DC50 was less than 10 nM.
For `CC(C)(c1ccc(Oc2cnnc(-n3nccn3)c2)cc1)c1ccc(O[C@H]2C[C@H](Nc3ccc4c(c3)C(=O)N(C3CCC(=O)NC3=O)C4=O)C2)cc1` (stereo partly drawn) [Example 217], the IC50 in the test with 22RV1 cells (setting [2]) turned out to be 15 nM. The DC50 in test [1] was less than 10 nM.
For `Cc1nnc(-c2cnnc(Oc3ccc(C(C)(C)c4ccc(O[C@H]5C[C@H](Nc6ccc7c(c6)C(=O)N(C6CCC(=O)NC6=O)C7=O)C5)cc4)cc3)c2)o1` (stereo partly drawn) [Example 218], in that order: 6 nM and less than 10 nM.
On to `CC(O)c1ncc(Oc2ccc(C(C)c3ccc(O[C@H]4C[C@H](Nc5ccc6c(c5)C(=O)N(C5CCC(=O)NC5=O)C6=O)C4)cn3)cc2)cn1` (stereo partly drawn) [Example 219], for which the IC50 with 22RV1 cells (setting [2]) is 6 nM. This molecule also displayed a DC50 in test [1] of less than 10 nM.
`CC(=O)c1ncc(Oc2ccc(C(C)c3ccc(O[C@H]4C[C@H](Nc5ccc6c(c5)C(=O)N(C5CCC(=O)NC5=O)C6=O)C4)cn3)cc2)cn1` (stereo partly drawn) [Example 220]: the IC50 in the test on 22RV1 cells (setting [2]) came out at 8 nM. In test [1], the DC50 is less than 10 nM.
`Cc1nc(-c2ncc(Oc3ccc(C(C)(C)c4ccc(OC5CC(Nc6ccc7c(c6)C(=O)N(C6CCC(=O)NC6=O)C7=O)C5)cn4)cc3)cn2)no1` (stereo not drawn) [Example 221, 2-(2,6-dioxopiperidin-3-yl)-5-((1r,3r)-3-((6-(2-(4-((2-(5-methyl-1,2,4-oxadiazol-3-yl)pyrimidin-5-yl)oxy)phenyl)propan-2-yl)pyridin-3-yl)oxy)cyclobutyl)amino)isoindolin-1,3-dione]: the IC50 with 22RV1 cells (setting [3]) came out at 6 nM. In test [1], this molecule displayed a DC50 of less than 10 nM.
As to `CC(=O)c1ncc(Oc2ccc(C(C)(C)c3ccc(OC4CC(Nc5ccc6c(c5)C(=O)N(C5CCC(=O)NC5=O)C6=O)C4)cn3)cc2)cn1` (stereo not drawn) [Example 222, 5-((1r,3r)-3-((6-(2-(4-((2-acetylpyrimidin-5-yl)oxy)phenyl)propan-2-yl)pyridin-3-yl)oxy)cyclobutyl)amino)-2-(2,6-dioxopyridin-3-yl)isoindolin-1,3-dione], the IC50 in the test on 22RV1 cells (setting [3]) was determined as 3 nM. This molecule gave a DC50 in test [1] of less than 10 nM.
For `Cc1nc(COc2ccc(C(C)(C)c3ccc(OCCCNc4ccc5c(c4)C(=O)N(C4CCC(=O)NC4=O)C5=O)cc3)cc2)cs1` (stereo not drawn) [Example 225, 2-(2,6-dioxopiperidin-3-yl)-5-((3-(4-(2-(4-((2-methylthiazol-4-yl)methoxy)phenyl)propan-2-yl)phenoxy)propyl)amino)isoindolin-1,3-dione], the 50% inhibitory concentration (IC50) with 22RV1 cells (setting [2]) was determined as 60 nM. This molecule also yielded a DC50 in test [1] of 11 to 100 nM.
On to `CC(C)(c1ccc(OCCCNc2ccc3c(c2)C(=O)N(C2CCC(=O)NC2=O)C3=O)cc1)c1ccc(OCc2ccnc(-n3ccnn3)n2)cc1` (stereo not drawn) [Example 228, 5-((3-(4-(2-(4-((2-(1H-1,2,3-triazol-1-yl)pyrimidin-4-yl)methoxy)phenyl)propan-2-yl)phenoxy)propyl)amino)-2-(2,6-dioxopiperidin-3-yl)isoindolin-1,3-dione], for which the IC50 with 22RV1 cells (setting [2]) turned out to be 22 nM. In test [1], this molecule showed a DC50 of 11 to 100 nM.
Take `CC(C)(c1ccc(OCCCNc2ccc3c(c2)C(=O)N(C2CCC(=O)NC2=O)C3=O)cc1)c1ccc(OCc2ccnc(-n3nccn3)n2)cc1` (stereo not drawn) [Example 229, 5-((3-(4-(2-(4-((2-(2H-1,2,3-triazol-2-yl)pyrimidin-4-yl)methoxy)phenyl)propan-2-yl)phenoxy)propyl)amino)-2-(2,6-dioxopiperidin-3-yl)isoindolin-1,3-dione]: the IC50 with 22RV1 cells (setting [2]) stood at 31 nM. The DC50 in test [1] is 11 to 100 nM.
`CC(C)(c1ccc(OCc2ccnc(-n3ccnn3)n2)cc1)c1ccc(O[C@H]2C[C@H](Nc3ccc4c(c3)C(=O)N(C3CCC(=O)NC3=O)C4=O)C2)cc1` (stereo partly drawn) [Example 230]: the IC50 in the test with 22RV1 cells (setting [2]) stood at 9 nM. Further, the DC50 in test [1] is less than 10 nM.
For `CC(C)(c1ccc(OCc2ccnc(N3CC[C@H](O)C3)n2)cc1)c1ccc(O[C@H]2C[C@@H](Nc3ccc4c(c3)C(=O)N(C3CCC(=O)NC3=O)C4=O)C2)cc1` (stereo partly drawn) [Example 233], in the test on 22RV1 cells (setting [2]), the IC50 turned out to be 16 nM. Moreover, the DC50 in test [1] is less than 10 nM.
`CC(C)(c1ccc(OCc2ccnc(NC3COC3)n2)cc1)c1ccc(O[C@H]2C[C@@H](Nc3ccc4c(c3)C(=O)N(C3CCC(=O)NC3=O)C4=O)C2)cc1` (stereo partly drawn) [Example 237]: the IC50 in the test on 22RV1 cells (setting [2]) was 9 nM. The molecule further gave a DC50 in test [1] of less than 10 nM.
As to `CC(C)(c1ccc(Oc2ccnc(N3CC4(COC4)C3)n2)cc1)c1ccc(O[C@H]2C[C@H](Nc3ccc4c(c3)C(=O)N(C3CCC(=O)NC3=O)C4=O)C2)cc1` (stereo partly drawn) [Example 244, 5-((1r,3r)-3-(4-(2-(4-(4-((2-(2-oxa-6-azaspiro[3.3]heptane-6-yl)pyrimidin-4-yl)oxy)phenyl)propan-2-yl)phenoxy)cyclobutyl)amino)-2-(2,6-dioxopiperidin-3-yl)isoindolin-1,3-dione], the IC50 with 22RV1 cells (setting [2]) amounted to 6 nM. In test [1], this molecule gave a DC50 of less than 10 nM.
Taken in the same sequence, the figures for `CC(=O)c1nccc(Oc2ccc(C(C)(C)c3ccc(O[C@H]4C[C@H](Nc5ccc6c(c5)C(=O)N(C5CCC(=O)NC5=O)C6=O)C4)cc3)cc2)n1` (stereo partly drawn) [Example 246] were 5 nM and less than 10 nM.
For `CC(c1nccc(COc2ccc(C(C)(C)c3ccc(O[C@H]4C[C@H](Nc5ccc6c(c5)C(=O)N(C5CCC(=O)NC5=O)C6=O)C4)cc3)cc2)n1)N1CCC1` (stereo partly drawn) [Example 249], the IC50 with 22RV1 cells (setting [2]) was 6 nM. In addition, in test [1], the DC50 is less than 10 nM.

Source of the values: patent publication US20250051347A1, “BIFUNCTIONAL CHIMERIC HETEROCYCLIC COMPOUND AND USE THEREOF AS ANDROGEN RECEPTOR DEGRADER” (Hinova Pharmaceuticals, Inc., priority 2021, published 2025).
